Data from a melting point compilation (Tetko et al.; mined from patent text by program, amines drawn as free bases though some values may be those of a salt).

Compound	melting point [°C]
CCc1scc2c1CN(S(=O)(=O)c1ccc(C)cc1)C2	117 to 120
c1ccc(C(N=C2CCCCC2)c2ccccc2)cc1	71 to 72
O=S(=O)(c1ccccc1)c1ccc2c(c1)OCCN2C1CCNC1 (stereo not given)	123 to 128
COc1ccc2nc(-c3ccc(N)c(I)c3)sc2c1	179 to 181
CCCCCCCCNC(=O)c1cc(C(C)(C)C)c(O)c(C(C)(C)C)c1	133 to 135
CC(=O)Nc1ccc(OC(C)=O)c2cnsc12	215 to 216
Cc1ccc(C=C2NC(=O)N(c3cc(F)ccc3F)C2=O)cc1	218 to 224
Cc1ccc(N2CCN3C(=O)CCC3C2=O)cc1 (stereo not given)	115 to 117
COc1cc(C(=O)NC2CCN(C)CC2)c(F)cc1Nc1ncc2c(n1)N(C1CCCC1)CC(F)(F)C(=O)N2C	194 to 196
COc1cc(OCc2ccncc2)ccc1/C=C/c1cc(/C=C/c2c[nH]c3ccccc23)n[nH]1	128 to 139
COc1cccc2c1NCn1cc(CO)cc1-2	137 to 138
COCc1cnc2c(NC(=O)c3c(Cl)cccc3Cl)cccc2c1CO	199 to 200
C=CCc1c(OC)c(=O)[nH]c2cc(Cl)ccc2c1=O	135 to 136
Cc1nc2c(O)c(CCC(=O)c3ccc(F)cc3)c(C(=O)N(C)C)cc2n1C	248 to 249
O=c1n(-c2ccccc2)nc2n1-c1ccccc1Oc1ccccc1-2	176 to 177
O=C(NC1(C2CC2)CC1)c1c(NC(=O)c2cc(C(F)(F)F)nn2-c2ncccc2Cl)ccc2cn[nH]c12	224 to 227
Clc1ccc(Nc2nnc(Cc3ccncc3)c3ccccc23)cc1Cl	249 to 250
CCc1nc2c(N)nc3cccnc3c2n1CC1(O)CCOC1 (stereo not given)	234 to 236
CN1c2cccc3cccc(c23)N(C)C1(C)C	53 to 57
CC(=O)N1CCC(NC(=O)Nc2cccc(C(F)(F)F)c2)CC1	212 to 217
COC(=O)CC1(C)C(=O)N(C)c2ccc(OC)cc21 (stereo not given)	83 to 84
O=C(NCCO[N+](=O)[O-])c1cscn1	105 to 108
CCC(C)CNC(=O)C(CC(O)C(CC(C)C)NC(=O)C(Cc1cscn1)NC(=O)C(Cc1cccc2ccccc12)NC(=O)OC(C)(C)C)C(C)(C)O (mixture of isomers)	90 to 92
CC(=O)NC[C@H]1CN(c2ccc(N3CCC(=C(C#N)c4ccccn4)CC3)c(F)c2)C(=O)O1	265 to 267
COc1ccccc1N(CCN1CCC(C(=O)c2ccc(F)cc2)CC1)S(=O)(=O)c1cccnc1	126 to 128

Compound	melting point [°C]
CN(C)C=C1CCc2cnccc2C1=O	76 to 79
O=c1[nH]c2ccc(-c3cccc([N+](=O)[O-])c3)cc2o1	280 to 281
CCCCCCCCCCCC(=O)CC(=O)OC	29
CC(C#Cc1cccc(Oc2nccs2)c1)N(O)C(N)=O (stereo not given)	118 to 119
O=S(=O)(c1ccccc1)c1ccc2cc[nH]c2c1	141 to 144
Cc1cc(C=O)ccc1-c1ccccc1C(F)(F)F	127 to 130
CC(C)(C)OC(=O)NNC(=O)C=Cc1cc(=O)c(OCc2ccccc2)c[nH]1	141
c1ccc(N(c2ccc3c(c2)Oc2ccc(N(c4ccccc4)c4cccc5ccccc45)cc2O3)c2cccc3ccccc23)cc1	315
COc1cccc(C(=O)CC(=O)c2cc(NC(C)=O)ccc2O)c1	72 to 73
COC(=O)c1cc2c(s1)[C@@H](N1CCCCC1=O)[C@H](O)C(C)(C)O2 (relative stereo)	104 to 106
Cn1c(C(C)(C)C)cn(N=Cc2cccnc2)c1=O	116 to 121
Cn1cc2c(n1)-c1cnn(C)c1CC2(C)C	172 to 173
CSCCCn1nc(-c2cccc(C(F)(F)F)c2F)c(=O)c2ccccc21	80 to 83
O=C1Cc2c([nH]c3ccc(I)cc23)-c2ncccc2N1	> 330
Cc1cc2ccccc2c(Cl)c1C	55
COc1cccc(CC(O)C2CCN(CS(N)(=O)=O)CC2)c1OC (stereo not given)	112 to 114
CCc1nc2c(N)nc3cc(OCc4nc5ccccc5s4)ccc3c2s1	211 to 212
O=C(O)c1cnc2c(F)c(F)ccc2c1	275
CC(C)C[C@H](NC(=O)[C@H](Cc1c[nH]cn1)NC(=O)[C@H](Cc1cccc2ccccc12)NC(=O)OCc1ccccc1)[C@@H](O)CCO	196 to 198
Cc1cccc(-c2c[nH]nc2-c2ccnc(-c3ccc(OCCN4CCCC4)cc3)c2)n1	96
CC(C)[C@H](N)C(=O)N[C@@H](Cc1ccccc1)C(O)[C@H](Cc1ccccc1)NC(=O)[C@@H](N)C(C)C	131 to 132
O=C(/C=C/c1ccc(C(=O)O)s1)NOC1CCCCO1 (stereo not given)	177
Cc1c(C)c2c(c(C)c1N)CC(C)(CN1C(=O)c3ccccc3C1=O)O2 (stereo not given)	147 to 150
O=C(O)C(Cc1ccccc1)Oc1ccc(-c2ccc(-c3c(Cc4ccccc4)sc4ccccc34)cc2)cc1Br (stereo not given)	81 to 83
C[C@@H]1Cc2cc3c(cc2C(c2ccc([N+](=O)[O-])cc2)=NN1c1cnns1)OCO3	175 to 176

Compound	melting point [°C]
CCCc1nc2c(N)nc3cccnc3c2n1CCCCCC(=O)N1CCOCC1	148 to 150
O=C1CN(C(=O)c2ccccc2Cl)c2ccccc2N1	222 to 224
CCNc1c(-c2ccccc2C)nc2c3cc(OC)ccc3ccn12	153 to 154
CC(=O)Oc1ccc(C=CC(=O)NC23CC4CC(CC(C4)C2)C3)cc1[N+](=O)[O-]	179 to 180
CCCN(Cc1ccc(-c2ccccc2-c2nnn[nH]2)cc1)c1nc(C)nnc1C(=O)OCC	120 to 122
CC(C(O)c1ccc2c(c1)CCCS2)N1CCN(C(=O)C=Cc2ccccc2Cl)CC1 (stereo not given)	206 to 209
O=C1Nc2ccc(Cl)cc2C(OCC2CC2)(C(F)(F)F)CN1C1CC1 (stereo not given)	154 to 155
Cc1ccc(S(=O)(=O)OCC2Cc3cccc(Nc4ccc(C)c(C)c4)c3O2)cc1 (stereo not given)	88 to 90
CC(C)NCC(O)COc1nccnc1Cl (stereo not given)	99 to 100
CCNC(=O)c1ccccc1NC(C)(C)C	37 to 40
Nc1c(-c2ccc(O)cc2)nnn1-c1ccc(C(F)(F)F)cc1Cl	161 to 162
CC(=O)NC[C@H]1CN(c2ccc(-n3nccc3-c3cccc(Br)n3)c(F)c2)C(=O)O1	90.5 to 92.3
OC1(C#Cc2ccc(Br)cn2)CN2CCC1CC2 (stereo not given)	194 to 198
O=C1CCc2cc(Cl)cc(Cl)c21	119 to 120
CCOC(=O)c1c(Nc2cc(F)ccc2[N+](=O)[O-])sc2ccccc12	137 to 140
CC(C)c1nc(C(C)C)c(C(C)O)c(-c2ccc(F)cc2)c1-c1ccccc1 (stereo not given)	155 to 157
COc1ccc(CC2C(=O)N(Cc3ccccc3)c3ccccc3N=C2C)cc1 (stereo not given)	136 to 137
CCCNC(=O)c1nnc(NCc2cc(Br)ccc2OCc2ccccc2)s1	154
FC1(F)CCC(n2ncc3c(Br)cncc32)CC1	172 to 173
CCCCCCCCCCCCOc1ccc(NC(=O)C(=O)OCC)cc1	70.5 to 72
CC(C)(COc1nn2ccnc2c2c1CCCC2)CS(N)(=O)=O	198 to 200
NS(=O)(=O)CCCCCSc1ccc2nccn2n1	120 to 121
COc1cc(CCCS2(OCC(=O)O)C=CN=C2)cc(OCc2ccc3ccccc3c2)c1 (stereo not given)	160 to 161
Cc1cc(C)c2cc(-c3ccccc3)c(N)nc2n1	191 to 195
COc1ccc(CNc2ncnc3c2ncn3C2OC(Cn3cc(C)nn3)C(O)C2O)cc1 (stereo not given)	183

Compound	melting point [°C]
COc1cc(N(C)C(C)C)ccc1CN1C(=O)C(C)(c2ccccc2Cl)c2cc(Cl)ccc21 (stereo not given)	156
NC(=O)c1cc(NCc2ccc(F)cc2)c([N+](=O)[O-])cc1[N+](=O)[O-]	178 to 180
CC(=NO)C(C)(C)NCCCNC(C)(C)C(Cn1cc(C)nc1[N+](=O)[O-])=NO	140 to 141
O=C(N(Cc1cccnc1)c1ccc(F)cc1)C(F)(F)F	97 to 98
CSC(=S)OC(C(=O)O)c1ccccc1 (stereo not given)	109 to 110
C=Cc1cc(C(F)(F)F)ccc1-c1cc(Oc2cccc3sc(NC(C)=O)nc23)ncn1	234 to 237
CCC(=O)NCCOc1ccccc1	61.5 to 64
COCCOc1ccc(CCCO)c(Oc2ncc(Cl)cc2Cl)c1	83.9 to 84.5
CC(=O)C1CNCc2c1[nH]c1cnc3cc(Cl)ccc3c21 (stereo not given)	235 to 237
CC(C)OC(=O)c1cc(Cl)c(Cl)c(-c2ccc(Cl)cc2)n1	133 to 135
CCN1CCCC1CNC(=O)c1cc(S(N)(=O)=O)cc2c1OC(C)C2 (stereo not given)	164 to 165
CC(C)C1=NC2=NC(SCc3ccccc3)(SCc3ccccc3)NN2C=C1	65 to 66
COc1ccc(-c2cc3cc(F)c(F)cc3[nH]2)cc1NC(=S)Nc1ccc(C(=O)O)cc1	201 to 203
COc1ccc2cn[nH]c(=O)c2c1	228 to 229
CCOC(=O)C1=C(C)NC(=S)N(C(=O)OCC)C1c1cccc(C(F)(F)F)c1 (stereo not given)	98 to 100
CC(C)(C)CNc1nc(Cl)ncc1CN=[N+]=[N-]	133 to 136
C/C(=C(\C#N)C(N)=S)N1CCCCCCC1	149 to 150
CCCc1cc(-c2noc3cc(OC)ccc23)ccc1OC	70 to 72
CCCCCCOc1ccc(-c2nc(-c3ccc(OCCCCCC)cc3O)nc(-c3ccc(OCCCCCC)cc3OCCCCCC)n2)c(O)c1	85 to 87
Nc1nc(O)c2c(n1)CCCS2	> 300
COc1ccc(C2Sc3cccc4cccc(c34)N(CCN(C)C)C(=O)C2OC(C)=O)cc1 (stereo not given)	111 to 112
O=P(O)(O)C(O)(CCc1ccc(Cl)c(Cl)c1)P(=O)(O)O	187
COCc1nc(N)nc(N)c1-c1ccc(Cl)c(Cl)c1	204 to 206
COc1cc(-c2cccs2)c(OC)c2c(OC)cc(-c3cccs3)c(OC)c12	234 to 237
COCOc1ccc(C(=O)OC)c(O)c1C	73.8 to 74
